Results taken from ChEMBL document CHEMBL5608163, “Structure modification of anoplin for fighting resistant bacteria” (Eur J Med Chem, 2024).
Converted amounts (≈) assume the structure as drawn. Square brackets hold non-standard residues; d marks the D form. Peptide text beside a SMILES is read from it. * marks the point of attachment. Heptadecanoyl = CCCCCCCCCCCCCCCCC(=O)*; Tridecanoyl = CCCCCCCCCCCCC(=O)*; hIle = CC[C@H](C)C[C@H](N)C(=O)O; Cha = N[C@@H](CC1CCCCC1)C(=O)O; Undecanoyl = CCCCCCCCCCC(=O)*; Nonanoyl = CCCCCCCCC(=O)*

Key:
[1] = test system: Staphylococcus aureus; test: Antimicrobial activity against Staphylococcus aureus ATCC 25923 assessed as reduction in microbial growth incubated for 18 to 20 hrs by Mueller-Hinton broth based microdilution method; format: functional; settings: time 18-20 hrs
[2] = test system: Escherichia coli; test: Antibacterial activity against Escherichia coli ATCC 25922 assessed as bacterial growth inhibition incubate for 18 to 20 hrs by MH broth based assay; format: functional; settings: time 18-20 hrs
[3] = test system: Enterococcus faecium; test: Antimicrobial activity against Enterococcus faecium assessed as reduction in microbial growth incubated for 18 to 20 hrs by Mueller-Hinton broth based microdilution method; format: functional; settings: time 18-20 hrs
[4] = Hemolytic activity in human RBC; format: toxicity, cell-based, Erythrocyte; settings: red blood cells
[5] = Hemolytic activity in mouse RBC incubated for 1 hr; format: toxicity, cell-based, Erythrocyte; settings: red blood cells
[6] = test system: Escherichia coli; test: Antibacterial activity against Escherichia coli ATCC 25922 assessed as reduction in bacterial growth incubated for 48 hrs by Mueller-Hinton broth based microdilution method; format: functional
[7] = Hemolytic activity in human erythrocyte incubated for 1 hr; format: toxicity, cell-based; settings: erythrocytes
[8] = test system: Staphylococcus aureus; test: Antibacterial activity against Staphylococcus aureus ATCC 25923 assessed as reduction in bacterial growth incubated for 48 hrs by Mueller-Hinton broth based microdilution method; format: functional
[9] = test system: Escherichia coli; test: Antibacterial activity against Escherichia coli DH5a assessed as reduction in bacterial growth; format: functional
[10] = test system: Bacillus subtilis; test: Antibacterial activity against Bacillus subtilis assessed as reduction in bacterial growth; format: functional
[11] = test system: Pseudomonas aeruginosa; test: Antibacterial activity against Pseudomonas aeruginosa PAO1 assessed as reduction in bacterial growth; format: functional
[12] = test system: Mycolicibacterium smegmatis; test: Antimycobacterial activity against Mycobacterium smegmatis mc2 155 assessed as reduction in bacterial cell growth incubated for 48 hrs by resazurin dye based assay; format: functional
[13] = test system: Zymomonas mobilis; test: Antibacterial activity against Zymomonas mobilis ATCC 10988 assessed as reduction in bacterial growth; format: functional
[14] = Hemolytic activity in human erythrocytes; format: toxicity, cell-based, Erythrocyte
[15] = test system: Bacillus subtilis; test: Antibacterial activity against Bacillus subtilis assessed as bacterial growth inhibition; format: functional
[16] = Hemolytic activity in human erythrocytes measured after 1 hrs by microplate reader analysis; format: toxicity, cell-based, Erythrocyte
[17] = test system: Pseudomonas aeruginosa; test: Antibacterial activity against Pseudomonas aeruginosa PAO1 assessed as bacterial growth inhibition; format: functional
[18] = test system: Escherichia coli; test: Antibacterial activity against Escherichia coli DH5a assessed as bacterial growth inhibition; format: functional
[19] = test system: Mycolicibacterium smegmatis; test: Antibacterial activity against Mycobacterium smegmatis mc2 155 assessed as bacterial growth inhibition; format: functional
[20] = test system: Zymomonas mobilis; test: Antibacterial activity against Zymomonas mobilis ATCC 10988 assessed as bacterial growth inhibition; format: functional

Row | SMILES | MIC [6] | HC50 at 1 h [7] | MIC [8] | MIC [9] | MIC [10] | MIC [11] | MIC [12] | MIC [13] | HC50 [14] | other results
1 | CC[C@H](C)C[C@H](NC(=O)[C@H](CCCNC(=N)N)NC(=O)[C@H](CCCCN)NC(=O)[C@H](CC(C)C)NC(=O)[C@H](CC1CCCCC1)NC(=O)CN)C(=O)N[C@@H](CCCCN)C(=O)N[C@H](C(=O)N[C@@H](CC(C)C)C(=O)N[C@@H](CC1CCCCC1)C(N)=O)[C@@H](C)O (H-G[Cha]LKR[hIle]KTL[Cha]-NH2) | – | – | – | – | – | – | – | – | – | MIC [1]: 5.3 µM; MIC [2]: 6.25 µM (≈ 7.8 µg/mL); MIC [3]: 3.2 µM; HC50 [4]: 31.2 µM; HC50 at 1 h [5]: 31.2 µM
2 | CCCCCCCCCCCCCCCCC(=O)NCC(=O)N[C@@H](CC(C)C)C(=O)N[C@@H](CC(C)C)C(=O)N[C@@H](CCCCN)C(=O)N[C@@H](CCCNC(=N)N)C(N)=O (Heptadecanoyl-GLLKR-NH2) | 7.88 µM (≈ 6.6 µg/mL) | 80.2 µM | 3.94 µM (≈ 3.3 µg/mL) | – | – | – | – | – | – | –
3 | CCCCCCCCCCCCCCCCC(=O)NCC(=O)N[C@@H](CC(C)C)C(=O)N[C@@H](CC(C)C)C(=O)N[C@@H](CCCCN)C(=O)N[C@@H](CCCNC(=N)N)C(=O)N[C@H](C(N)=O)[C@@H](C)CC (Heptadecanoyl-GLLKRI-NH2) | 3.47 µM (≈ 3.3 µg/mL) | 8.01 µM | 0.66 µM (≈ 0.627 µg/mL) | – | – | – | – | – | – | –
4 | CCCCCCCCCCCCCCCCC(=O)NCC(=O)N[C@@H](CC(C)C)C(=O)N[C@@H](CC(C)C)C(=O)N[C@@H](CCCCN)C(=O)N[C@@H](CCCNC(=N)N)C(=O)N[C@H](C(=O)N[C@@H](CCCCN)C(N)=O)[C@@H](C)CC (Heptadecanoyl-GLLKRIK-NH2) | 1.53 µM (≈ 1.65 µg/mL) | 35.4 µM | 0.76 µM (≈ 0.82 µg/mL) | – | – | – | – | – | – | –
5 | CCCCCCCCCCCCCCCCC(=O)NCC(=O)N[C@@H](CC(C)C)C(=O)N[C@@H](CC(C)C)C(=O)N[C@@H](CCCCN)C(=O)N[C@@H](CCCNC(=N)N)C(=O)N[C@H](C(=O)N[C@@H](CCCCN)C(=O)N[C@H](C(N)=O)[C@@H](C)O)[C@@H](C)CC (Heptadecanoyl-GLLKRIKT-NH2) | 2.8 µM (≈ 3.3 µg/mL) | 29 µM | 1.4 µM (≈ 1.65 µg/mL) | – | – | – | – | – | – | –
6 | CCCCCCCCCCCCCCCCC(=O)NCC(=O)N[C@@H](CC(C)C)C(=O)N[C@@H](CC(C)C)C(=O)N[C@@H](CCCCN)C(=O)N[C@@H](CCCNC(=N)N)C(=O)N[C@H](C(=O)N[C@@H](CCCCN)C(=O)N[C@H](C(=O)N[C@@H](CC(C)C)C(=O)N[C@@H](CC(C)C)C(=O)O)[C@@H](C)O)[C@@H](C)CC (Heptadecanoyl-GLLKRIKTLL-OH) | 0.32 µM (≈ 0.45 µg/mL) | 14.8 µM | 0.32 µM (≈ 0.45 µg/mL) | – | – | – | – | – | – | –
7 | CCCCCCCCC(=O)NCC(=O)N[C@@H](CC(C)C)C(=O)N[C@@H](CC(C)C)C(=O)N[C@@H](CCCCN)C(=O)N[C@@H](Cc1ccccc1)C(=O)N[C@H](C(=O)N[C@@H](CCCCN)C(=O)N[C@@H](CCCCN)C(=O)N[C@@H](CC(C)C)C(=O)N[C@@H](CC(C)C)C(N)=O)[C@@H](C)CC (Nonanoyl-GLLKFIKKLL-NH2) | – | – | – | 23.1 µM (≈ 30.3 µg/mL) | 8 µM (≈ 10.5 µg/mL) | 3.86 µM (≈ 5.06 µg/mL) | 3.86 µM (≈ 5.06 µg/mL) | 3.86 µM (≈ 5.06 µg/mL) | < 386 µM | –
8 | CCCCCCCCCCCCC(=O)NCC(=O)N[C@@H](CC(C)C)C(=O)N[C@@H](CC(C)C)C(=O)N[C@@H](CCCCN)C(=O)N[C@@H](Cc1ccccc1)C(=O)N[C@H](C(=O)N[C@@H](CCCCN)C(=O)N[C@@H](CCCCN)C(=O)N[C@@H](CC(C)C)C(=O)N[C@@H](CC(C)C)C(N)=O)[C@@H](C)CC (Tridecanoyl-GLLKFIKKLL-NH2) | – | – | – | 22.1 µM (≈ 30.3 µg/mL) | 8 µM (≈ 10.9 µg/mL) | 3.69 µM (≈ 5.05 µg/mL) | 3.69 µM (≈ 5.05 µg/mL) | 22.1 µM (≈ 30.3 µg/mL) | < 370 µM | –
9 | CCCCCCCCCCC(=O)NCC(=O)N[C@@H](CC(C)C)C(=O)N[C@@H](CC(C)C)C(=O)N[C@@H](CCCCN)C(=O)N[C@@H](Cc1ccccc1)C(=O)N[C@H](C(=O)N[C@@H](CCCCN)C(=O)N[C@@H](CCCCN)C(=O)N[C@@H](CC(C)C)C(=O)N[C@@H](CC(C)C)C(N)=O)[C@@H](C)CC (Undecanoyl-GLLKFIKKLL-NH2) | – | – | – | 22.6 µM (≈ 30.3 µg/mL) | 8 µM (≈ 10.7 µg/mL) | 3.77 µM (≈ 5.05 µg/mL) | 3.77 µM (≈ 5.05 µg/mL) | 3.77 µM (≈ 5.05 µg/mL) | < 377 µM | MIC [15]: > 170 µM; HC50 at 1 h [16]: 148 µM; MIC [17]: 33.9 µM (≈ 45.4 µg/mL); MIC [18]: > 170 µM; MIC [19]: > 168 µM; MIC [20]: 12.7 µM (≈ 17 µg/mL)
